Measured values as given in patent US10506759B2, “Rice seed treatment agent” (KUMIAI CHEMICAL INDUSTRY CO., LTD., priority 2015, dated 2019).
Like-named read-outs stand apart in the source and are kept apart here.

Key:
paddy rice [1] = experiment: Test Example 1: germination rate of treated paddy seeds (pot test); assay type: in vivo
Method: (§1) Treatment of dried paddy seeds was carried out at a coating ratio of 0.5 (seeds:iron powder=1:0.5). More specifically, paddy seeds, an iron powder, and calcined gypsum were mixed and stirred together while spraying water thereon, using a coating machine according to a conventional method, to coat the seeds with the iron powder and the calcined gypsum. The outer layer of the coated seeds was further similarly coated with finishing calcined gypsum mixed with each of the paddy seed treatment agents containing the herbicidal active components shown in Tables 2 to 6.
In a 200-cm^2 plastic pot, paddy field soil was placed, and tillage was carried out, followed by sowing seeds of Echinochloa oryzicola and Scirpus juncoides on the soil surface. Then, tubers of Eleocharis kuroguwai in the germination state were buried in such a manner that tips of the sprouts in tubers are exposed to the outside of the soil surface. Four paddy seeds treated with each paddy seed treatment agent obtained in Preparation Example were sown, and water was gently introduced to allow flooding to a depth of 4 cm. On Day 7 after the sowing, the water was removed by suction. When the rice seedlings have grown to the one-leaf stage, flooding was allowed again to a depth of 4 cm. On Day 15 after the sowing, the germination rate of the paddy seeds and the growth-inhibitory effect on the weeds were judged. The germination rate of the paddy seeds is expressed as %, and the growth-inhibitory effect on the weeds is expressed as a value of 0 to 100 representing the degree of inhibition, wherein 0 represents no inhibition, and 100 represents complete death.

paddy rice [2] = conditions: in vivo, 22 days
Method: as §1
In a 200-cm^2 plastic pot, paddy field soil was placed, and tillage was carried out, followed by sowing seeds of Scirpus juncoides on the soil surface. Then, the seeds were covered with 0.5-cm thick soil. Subsequently, flooding was allowed to a depth of 4 cm, followed by sowing seeds of Monochoria vaginalis on the soil surface. When the Monochoria vaginalis reached the five-leaf stage, three paddy seeds treated with each paddy seed treatment agent obtained in Preparation Example were sown. […] The germination rate of the paddy seeds is expressed as %, and the growth-inhibitory effect on the weeds is expressed as a value of 0 to 100 representing the degree of inhibition, wherein 0 represents no inhibition, and 100 represents complete death.

Lindernia species = experiment: Test Example 2: growth-inhibitory effect on weeds (pot test); assay type: in vivo; conditions: Table 6; spontaneously grown weeds; scale 0 to 100; Day 22 after sowing
Method: as §1
(§2) In a 200-cm^2 plastic pot, paddy field soil was placed, and tillage was carried out, followed by sowing seeds of Scirpus juncoides on the soil surface. Then, the seeds were covered with 0.5-cm thick soil. Subsequently, flooding was allowed to a depth of 4 cm, followed by sowing seeds of Monochoria vaginalis on the soil surface. When the Monochoria vaginalis reached the five-leaf stage, three paddy seeds treated with each paddy seed treatment agent obtained in Preparation Example were sown. On Day 22 after the sowing of paddy seeds, the germination rate of the paddy seeds and the growth-inhibitory effect on the weeds were judged. Since Lindernia species were spontaneously grown in the test field soil, the growth-inhibitory effect on the Lindernia species were also judged. The germination rate of the paddy seeds is expressed as %, and the growth-inhibitory effect on the weeds is expressed as a value of 0 to 100 representing the degree of inhibition, wherein 0 represents no inhibition, and 100 represents complete death.

Monochoria vaginalis = experiment: as above; assay type: in vivo; conditions: Table 6; paddy seeds sown at five-leaf stage of weed; scale 0 to 100; Day 22 after sowing
Method: as §1, §2

Scirpus juncoides = experiment: as above; assay type: in vivo; conditions: Table 6; scale 0 to 100 (complete death); Day 22 after sowing of paddy seeds
Method: as §1, §2

In the case of `COc1ccc(-n2c(=O)c(C(=O)C3C(=O)CCCC3=O)nc3c(Cl)cccc32)cc1` [Example 1, Fenquinotrione], the “Germination rate of paddy rice (%)” value (paddy rice [1]; Table 2, iron-coated seeds treated with agent (a.i. g per 1 kg seeds as in row), Day 15 after sowing) is reported as 100%, the “Germination rate of paddy rice (%)” value (paddy rice [2]) is reported as 100% and the “Growth-inhibitory rate Lindernia species” value (Lindernia species) is reported as 95. For the same molecule, the “Growth-inhibitory rate Monochoria vaginalis” value (Monochoria vaginalis) was 95 and the “Growth-inhibitory rate Scirpus juncoides” value (Scirpus juncoides) was 98.
`CS(=O)(=O)c1ccc(C(=O)C2C(=O)CCCC2=O)c(Cl)c1COCC1CCCO1` (stereo not shown) [compound 1, Tefuryltrione] was tested, and the “Germination rate of paddy rice (%)” value (paddy rice [1]; in vivo) was 50%.
In the case of `CS(=O)(=O)c1ccc(C(=O)C2=C(Sc3ccccc3)C3CCC(C3)C2=O)c(Cl)c1` (stereo not shown) [compound 2, Benzobicyclon], the “Germination rate of paddy rice (%)” value (paddy rice [1]; in vivo) is reported as 50%.
